According to the NIST ThermoML archive (doi:10.1016/j.jct.2013.09.039):

Test: xn = mol fraction of the nth substance listed
Details: Liquid, Vibrating tube method

Cc1ccc(C)cc1 [1,4-dimethylbenzene] + CCCCCCCCCC
mass density [kg/m3]
Details | 100 kPa | 5000 kPa | 10000 kPa | 20000 kPa | 30000 kPa | 40000 kPa
288.15 K, x2 = 0.0513 | 854 | 858 | 861.4 | 867.9 | 873.8 | 879.5
288.15 K, x2 = 0.0971 | 845.3 | 849.4 | 852.8 | 859.2 | 865 | 870.8
288.15 K, x2 = 0.1962 | 828.2 | 831.6 | 835 | 841.5 | 847.4 | 853.3
288.15 K, x2 = 0.2932 | 812.1 | 815.9 | 819.4 | 825.7 | 831.8 | 837.6
288.15 K, x2 = 0.3942 | 799.8 | 803.5 | 806.9 | 813.5 | 819.4 | 825.1
288.15 K, x2 = 0.4987 | 784.1 | 787.7 | 791.4 | 797.7 | 803.8 | 809.4
288.15 K, x2 = 0.5563 | 777.2 | 780.7 | 784.2 | 790.8 | 796.7 | 802.5
288.15 K, x2 = 0.5965 | 773.9 | 777 | 779.5 | 786 | 792 | 798.1
288.15 K, x2 = 0.7018 | 761 | 764.7 | 768.4 | 774.8 | 780.7 | 786.3
288.15 K, x2 = 0.8047 | 750.8 | 754.4 | 757.9 | 764.3 | 770.4 | 776
288.15 K, x2 = 0.8975 | 741 | 745.1 | 748.6 | 755.6 | 761.9 | 768.1
288.15 K, x2 = 0.9474 | 738 | 741.8 | 745.2 | 751.5 | 757.6 | 763.2
298.15 K, x2 = 0.0513 | 845.7 | 850.1 | 853.3 | 860 | 866.2 | 872.1
298.15 K, x2 = 0.0971 | 837.1 | 841.3 | 844.4 | 851.2 | 857.6 | 863.4
298.15 K, x2 = 0.1962 | 819.6 | 823.7 | 827 | 833.8 | 840.2 | 846
298.15 K, x2 = 0.2932 | 804 | 808.2 | 811.4 | 818.4 | 824.7 | 830.4
298.15 K, x2 = 0.3942 | 791.6 | 795.8 | 799.2 | 806 | 812.4 | 818.2
298.15 K, x2 = 0.4987 | 776 | 780.5 | 783.6 | 790.4 | 796.8 | 802.6
298.15 K, x2 = 0.5563 | 769 | 773.4 | 776.7 | 783.6 | 789.9 | 795.7
298.15 K, x2 = 0.5965 | 765 | 768.7 | 771.9 | 778.8 | 785.2 | 791.1
298.15 K, x2 = 0.7018 | 753.2 | 757.6 | 760.8 | 767.7 | 774 | 779.8
298.15 K, x2 = 0.8047 | 742.9 | 747.2 | 750.5 | 757.4 | 763.7 | 769.5
298.15 K, x2 = 0.8975 | 734.6 | 738.6 | 741.8 | 748.2 | 755.2 | 761.6
298.15 K, x2 = 0.9474 | 730.4 | 734.6 | 738 | 744.7 | 750.9 | 757.2
308.15 K, x2 = 0.0513 | 837.2 | 841.3 | 844.9 | 851.9 | 858.8 | 865.1
308.15 K, x2 = 0.0971 | 828.6 | 832.6 | 836.5 | 843.4 | 849.8 | 856
308.15 K, x2 = 0.1962 | 811.1 | 815.2 | 819.1 | 826 | 832.7 | 838.9
308.15 K, x2 = 0.2932 | 795.7 | 799.9 | 803.7 | 810.6 | 817.4 | 823.6
308.15 K, x2 = 0.3942 | 783.5 | 787.7 | 791.4 | 798.6 | 805.2 | 811.3
308.15 K, x2 = 0.4987 | 768.1 | 772.1 | 776.1 | 783.3 | 789.9 | 795.9
308.15 K, x2 = 0.5563 | 761 | 765.2 | 769.3 | 776.4 | 783 | 789.1
308.15 K, x2 = 0.5965 | 757 | 760.6 | 764.5 | 771.7 | 778.2 | 785
308.15 K, x2 = 0.7018 | 746.3 | 749.6 | 753.5 | 760.6 | 767 | 773.3
308.15 K, x2 = 0.8047 | 736.1 | 739.4 | 743.3 | 750.3 | 757 | 763.1
308.15 K, x2 = 0.8975 | 727.9 | 731.3 | 734.8 | 741.9 | 748.5 | 755.1
308.15 K, x2 = 0.9474 | 723.2 | 726.8 | 730.9 | 737.9 | 744.4 | 750.9

Cc1ccc(C)cc1 [1,4-dimethylbenzene] + CCCCCCCC
mass density [kg/m3]
Details | 100 kPa | 5000 kPa | 10000 kPa | 20000 kPa | 30000 kPa | 40000 kPa
288.15 K, x2 = 0.0509 | 854.9 | 858.3 | 861.8 | 868.3 | 874.2 | 880
288.15 K, x2 = 0.0993 | 845.1 | 849 | 852.5 | 858.8 | 864.8 | 870.6
288.15 K, x2 = 0.1981 | 826.4 | 830.2 | 833.7 | 840.4 | 846.4 | 852.2
288.15 K, x2 = 0.2961 | 808.8 | 812.6 | 816.2 | 822.9 | 829 | 834.9
288.15 K, x2 = 0.3989 | 791.4 | 795.2 | 798.9 | 805.6 | 811.9 | 817.8
288.15 K, x2 = 0.4891 | 776.6 | 780.8 | 784.6 | 791.3 | 797.8 | 803.8
288.15 K, x2 = 0.5473 | 768.3 | 772 | 775.7 | 782.7 | 789.1 | 795.1
288.15 K, x2 = 0.6039 | 760.1 | 763.5 | 767.2 | 774.2 | 780.5 | 786.5
288.15 K, x2 = 0.8031 | 731.5 | 735.9 | 739.8 | 746.9 | 753.3 | 759.8
288.15 K, x2 = 0.8963 | 719.7 | 723.8 | 727.5 | 734.8 | 741.1 | 747.2
288.15 K, x2 = 0.946 | 712.7 | 716.7 | 720.8 | 727.6 | 734.2 | 740.3
298.15 K, x2 = 0.0509 | 846.1 | 850.4 | 853.4 | 860.3 | 866.3 | 872.5
298.15 K, x2 = 0.0993 | 836.5 | 840.8 | 844 | 850.7 | 857.1 | 863.1
298.15 K, x2 = 0.1981 | 817.9 | 822.3 | 825.5 | 832.4 | 838.9 | 844.9
298.15 K, x2 = 0.2961 | 800.2 | 804.6 | 808 | 815 | 821.5 | 827.5
298.15 K, x2 = 0.3989 | 782.9 | 787.4 | 790.9 | 798 | 804.5 | 810.7
298.15 K, x2 = 0.4891 | 768.7 | 773.3 | 776.6 | 784 | 790.7 | 796.8
298.15 K, x2 = 0.5473 | 760.7 | 764.4 | 768 | 775.2 | 781.9 | 787.9
298.15 K, x2 = 0.6039 | 752.1 | 755.9 | 759.5 | 766.8 | 773.3 | 779.4
298.15 K, x2 = 0.8031 | 723.7 | 728.5 | 732.1 | 739.3 | 746.2 | 752.5
298.15 K, x2 = 0.8963 | 712.2 | 716.5 | 720 | 727.3 | 734.1 | 740.5
298.15 K, x2 = 0.946 | 704.7 | 709.5 | 713.2 | 720.7 | 727.5 | 733.8
308.15 K, x2 = 0.0509 | 837.4 | 841.4 | 845.2 | 852.1 | 858.9 | 865
308.15 K, x2 = 0.0993 | 828 | 832 | 835.8 | 842.9 | 849.6 | 855.8
308.15 K, x2 = 0.1981 | 809.3 | 813.5 | 817.5 | 824.5 | 831.4 | 837.7
308.15 K, x2 = 0.2961 | 791.6 | 796 | 800 | 807.3 | 814.2 | 820.5
308.15 K, x2 = 0.3989 | 774.4 | 778.8 | 783 | 790.3 | 797.2 | 803.7
308.15 K, x2 = 0.4891 | 760.3 | 764.7 | 768.9 | 776.4 | 783.4 | 789.7
308.15 K, x2 = 0.5473 | 752.4 | 755.9 | 760.1 | 767.7 | 774.6 | 781.2
308.15 K, x2 = 0.6039 | 743.9 | 747.2 | 751.6 | 759.3 | 766.3 | 772.7
308.15 K, x2 = 0.8031 | 716.1 | 719.9 | 724.2 | 732.1 | 739.2 | 745.9
308.15 K, x2 = 0.8963 | 704.2 | 708.1 | 712.4 | 720.1 | 727.4 | 734
308.15 K, x2 = 0.946 | 697.5 | 701.3 | 705.5 | 713.4 | 720.7 | 727.3
